Laboratory results published in patent publication US10844118B2, “Treatment of inflammatory skin disease” (CHILDREN'S MEDICAL CENTER CORPORATION, priority 2013, dated 2020).
Entries after “also recorded” stand apart in the source; their conditions may differ. One block for each compound: values may come before it.

Key:
[1] = biological target: T1, CD1a (Homo sapiens, UniProt P06126); assay: plate-bound binding assay, purified urushiol and recombinant CD1a; settings: plate coated with lipid, biotinylated CD1a, streptavidin-peroxidase; compared to positive control sulfatide
Description: Central to our invention is the discovery that CD1a expressed on Langerhans cells is able to mediate skin inflammation through the induction of CD1a-restricted T cells. Accordingly, T cells stimulated by CD1a produce inflammatory cytokines such as interferon (IFN) gamma and IL-17 that facilitate the development of inflammatory skin disease (FIG. 1A). The CD1a-mediated mechanism holds true for diverse skin diseases, including poison ivy contact dermatitis as well as psoriasis. […] For this purpose, we performed a plate-bound binding assay, using purified urushiol and recombinant CD1a. After coating the microtiter plates with urushiol or the known CD1a ligand sulfatide as positive control, plates were washed and subsequently incubated with biotinylated CD1a. Following incubation with streptavidin-peroxidase and the respective chromogenic enzyme substrate, optical density was measured indicating binding efficiency. […] Thus, urushiol from poison ivy is a ligand for CD1a.

[2] = biological target: T1, CD1a; assay: urushiol-induced contact dermatitis (poison ivy) in CD1a-transgenic mice; assay type: in vivo, mouse; set-up: expressed in transfected cells; host or cells: CD1a-transgenic mice (compared with wild-type B6 mice)
Description: Next, we wanted to explore the function of CD1a in the in vivo response to urushiol. However, CD1a is mainly expressed in humans, and absent in experimental mice. Therefore, in vivo studies investigating CD1a function were not possible in the past. Therefore, we used mice transgenic for human CD1a to overcome that obstacle. FIG. 2A depicts the experimental set-up to investigate the skin immune response to poison ivy. Accordingly, CD1a-transgenic mice compared to wild-type (WT) mice were sensitized with urushiol on the abdomen following the epicutaneous route. Five days later, mice were challenged on the ear skin, prior to harvesting of inflamed ears and draining lymph nodes 48 h after challenge. […] Subsequently, we isolated the inflammatory cells from the ears, using in vitro enzyme digestion of ear tissues, prior to staining for neutrophils and T lymphocyte subsets.
In parallel, we also determined the cytokine profile of the T cells infiltrating the inflamed skin. Accordingly, we performed intracellular cytokine staining for IFN-γ, IL-17, and IL-22, prior to analysis by flow cytometry. […] IL-17 is known to mediate the recruitment of neutrophils, and IL-22 acts on epithelial cells to trigger their hyperproliferation, both cardinal features of skin inflammation.
Based on our findings that CD1a promotes skin inflammation, we next aimed at developing a therapeutic strategy to target CD1a in order to abrogate skin disease. To this end, we used an experimental blocking antibody to CD1a for intraperitoneal injection of mice. The treatment schedule included five injections of 100 μg anti-CD1a starting one day prior to sensitization with urushiol and followed by injections every other day until challenge and tissue harvest. […] To control for the efficiency of antibody treatment, we stained ear cells for CD1a, the crucial surface marker of Langerhans cells. […] Moreover, we investigated the impact of anti-CD1a treatment on the abundance of IL-17-producing CD4 T cells (also called Th17 cells). […] Taken together, we provide the proof of principle that anti-CD1a therapy abrogates skin inflammation.

[3] = biological target: T1, CD1a; assay: imiquimod (IMQ) psoriasis model in CD1a-transgenic mice; assay type: in vivo, mouse; set-up: expressed in transfected cells; host or cells: CD1a-transgenic mice (compared with wild-type B6 mice)
Description: Therefore, we subsequently investigated whether CD1a also plays an important role in psoriasis. For this purpose, we used a well-established model applying the small molecule imiquimod (IMQ) to the skin of mice, which induces psoriasis-like pathology after 3-6 days of daily administration. Strikingly, CD1a-transgenic mice responded with extensive ear swelling when compared to WT controls (FIG. 5A).
In order to test whether anti-CD1a therapy is able to abrogate skin inflammation in psoriasis, we performed IMQ treatment of mice and administered anti-CD1a antibody in parallel as described above. […] Of note, anti-CD1a therapy blocked the infiltration of IL-17 producing CD4 T cells.

[4] = biological target: T1, CD1a; assay: MC903-induced atopic dermatitis model in CD1a-transgenic mice; assay type: in vivo; set-up: expressed in transfected cells; host or cells: CD1a-transgenic mice (compared with wild-type B6 mice); settings: MC903 daily on ears, CD1a-transgenic mice compared to WT B6 controls
Description: Atopic dermatitis is an inflammatory skin disease characterized by itchy and relapsing eczematous skin lesions. It affects approximately 30% of children and 10% of adults, costing up to $3.8 billion annually in the United States. The cause of atopic dermatitis remains unclear, and there is no cure available. Recently, it has been reported that IL-22-producing CD4 T cells are associated with initiation and progression of atopic dermatitis. Therefore, it is worthwhile to test whether anti-CD1a therapy can be extended to atopic dermatitis. For this purpose, we set up a mouse model of atopic dermatitis applying MC903 (calcipotriol, Vitamin D analogue) daily on the ears of experimental mice, which triggers atopic dermatitis-like skin inflammation characterized by red, scaly, and eczematous lesions. […] Furthermore, anti-CD1a Ab injection suppressed ear swelling and granulocyte infiltration in CD1a-transgenic mice.
The inventors tested the contribution of CD1a presence in MC903-induced atopic dermatitis. The vitamin D3 analogue MC903 was used to induce AD-like symptoms in wild-type (WT-B6) mice, CD1a transgenic mice, and CD1a transgenic mice that were treated with an anti-CD1a Ab. For CD1a blocking, 200 μg of anti-CD1a Ab was intraperitoneally injected into CD1a-transgenic mice every other day (−1, +1, +3, +5, and +7 days before and after MC903 treatment).

[5] = biological target: T1, CD1a; assay: OCTET Bio-Layer Interferometry CD1a-lipid ligand binding assay; settings: recombinant CD1a coupled to a biosensor, incubated with lipid ligand
Description: In order to develop a small molecule inhibitor against CD1a, a CD1a binding assay as a platform can be used to test potential inhibitors from a chemical compound library. For this purpose, we have already established a read-out using the OCTET machine (from FORTEBIO) to measure the molecular interaction between CD1a and lipid ligands with high sensitivity. […] However, the great advantage of the OCTET is its straightforward assay set-up, and that it is amenable to high throughput screening using a 384-well plate format. Accordingly, we use recombinant CD1a molecules coupled to a biosensor, prior to incubation with the known lipid ligand sulfatide. […] In a next step, use pools of small organic molecules derived from a chemical compound library are tested by adding them to the CD1a-sulfatide binding assay. Subsequently, one can measure whether a small molecule candidate is able to inhibit the interaction between CD1a and its ligand.

[6] = test system: CD1a-transgenic mice; assay: DNFB hapten sensitization and challenge in CD1a-transgenic mice; assay type: in vivo
Description: Finally, we wanted to examine whether CD1a-transgenic mice are generally prone to increased inflammatory responses. To this end, we treated mice with the well-established hapten DNFB (dinitrofluorobenzene). FIG. 7A depicts the skin sensitization and challenge schedule used for DNFB and urushiol application. […] It is well known that haptens like DNFB induce a prominent IFN-γ response, as we observed in WT mice (FIG. 7D). […] By contrast, the classical delayed type hypersensitivity (DTH) response to DNFB was rather decreased in the presence of CD1a. This underlines the specific nature of CD1a function in urushiol-induced contact dermatitis and psoriasis.

[7] = intracellular cytokine staining, flow cytometry

Compound: urushiol
binding to CD1a (optical density) [1]: specific binding; also recorded: interacts as a ligand
ear swelling (ear thickness) ([2]; 2 days after urushiol challenge, CD1a-transgenic mice compared to WT controls): drastically increased
CD4+αβ T cells in urushiol-challenged skin ([2]; CD1a-dependent fashion): expanded
frequency of Th17 cells ([2]; CD1a-transgenic mice challenged with urushiol): drastically increased
IFN-γ response of T cells infiltrating the inflamed skin [2, 7]: failed to induce
cytokine profile of T cells responding to challenge [2, 7]: mainly produced the cytokines IL-17 and IL-22
neutrophil infiltration (Gr-1, CD11b), flow cytometry ([2]; urushiol-challenged ears, CD1a-transgenic mice vs WT): striking increase

Compound: C=C1/C(=C\C=C2/CCC[C@]3(C)[C@@H]([C@H](C)/C=C/[C@@H](O)C4CC4)CC[C@@H]23)C[C@@H](O)C[C@@H]1O [MC903, calcipotriol]
Gr1+CD11b+ granulocyte infiltration [4]: significantly amplified
ear swelling [4]: significantly amplified

Compound: O=[N+]([O-])c1ccc(F)c([N+](=O)[O-])c1 [DNFB, 2,4,-dinitro-1-fluorobenzene]
T cell-derived IFN-γ ([6]; CD1a-transgenic animals, response biased towards IL-17): significantly reduced
abundance of inflammatory granulocytes, flow cytometry ([6]; CD1a-transgenic mice): strikingly reduced
ear swelling (inflammation) ([6]; CD1a-transgenic mice, in contrast to poison ivy challenge): reduction
IFN-γ response ([6]; WT mice): prominent

Continued, in another order:

ear swelling ([3]; IMQ on skin, CD1a-transgenic mice compared to WT controls): extensive
Gr-1+CD11b+ neutrophils and αβ T cells in the skin, flow cytometry ([3]; IMQ, CD1a-transgenic mice): dramatic increase
Compound: CC(C)Cn1cnc2c(N)nc3ccccc3c21 [imiquimod]
cytokine profile of inflammatory T cells ([3]; IMQ, CD1a-transgenic mice): mainly consisted of CD4 T cells producing IL-17 and IL-22

binding curves, molecular interaction with CD1a [5]: sensitive and specific binding curves
Compound: sulfatide
